What was measured:
[1] = system: various unwanted plants; experiment: Post-emergence effect against various unwanted plants (PO): comparative test of I-01 with compounds from WO2020/245044 (Tables 41a, 41b) and summary statements; assay type: in vivo; conditions: comparative test
Description: Seeds of monocotyledonous and dicotyledonous weeds and crop plants are placed in sandy loam in plastic or organic planting pots, covered with soil and cultivated in a greenhouse under controlled growth conditions. 2 to 3 weeks after sowing, the trial plants are treated at the one-leaf stage. The compounds of the invention, formulated in the form of wettable powders (WP) or as emulsion concentrates (EC), are then sprayed onto the green parts of the plants as aqueous suspension or emulsion with addition of 0.5% additive at a water application rate of 600 l/ha (converted). After the test plants have been kept in the greenhouse under optimum growth conditions for about 3 weeks, the activity of the preparations is rated visually in comparison to untreated controls. For example, 100% activity=the plants have died, 0% activity=like control plants. […] Tables 41a and 41b below show the effects of the inventive compound (I-01) with structurally similar compounds (WO2020/245044) on various harmful plants at an application rate corresponding to 320 g/ha or less, which have been obtained by the trial procedure specified hereinafter. The inventive compound (I-01) differs here by variance of a significant structural feature from the structurally similar compound with regard to the R^2 radical. Seeds of monocotyledonous and dicotyledonous weeds and crop plants are placed in sandy loam in plastic or organic planting pots, covered with soil and cultivated in a greenhouse under controlled growth conditions. 2 to 3 weeks after sowing, the trial plants are treated at the one-leaf stage. The compounds of the invention, formulated in the form of wettable powders (WP) or as emulsion concentrates (EC), are then sprayed onto the green parts of the plants as aqueous suspension or emulsion with addition of 0.5% additive at a water application rate of 600 l/ha (converted). After the test plants have been kept in the greenhouse under optimum growth conditions for about 3 weeks, the activity of the preparations is rated visually in comparison to untreated controls. For example, 100% activity=the plants have died, 0% activity=like control plants. Effects/crop compatibilities of selected compounds (see Table 39) on various harmful plants at an application rate corresponding to 80 to 320 g/ha that have been obtained by the trial procedure specified hereinafter are shown in Tables 41a and 41b below.

[2] = system: various unwanted plants; experiment: Pre-emergence effect against various unwanted plants (PE): comparative test of I-01 with compounds from WO2020/245044 (Tables 40a, 40b) and summary statements; assay type: in vivo; conditions: comparative test
Text: Seeds of monocotyledonous and dicotyledonous weed plants and crop plants are placed in plastic or organic planting pots and covered with soil. The compounds of the invention, formulated in the form of wettable powders (WP) or as emulsion concentrates (EC), are then applied to the surface of the covering soil as aqueous suspension or emulsion with addition of 0.5% additive at a water application rate equivalent to 600 l/ha. After the treatment, the pots are placed in a greenhouse and kept under good growth conditions for the trial plants. After about 3 weeks, the effect of the preparations is scored visually in comparison with untreated controls as percentages. For example, 100% activity=the plants have died, 0% activity=like control plants. Tables 40a and 40b below show the effects of the inventive compound (I-01) with structurally similar compounds (from WO2020/245044) on various harmful plants at an application rate corresponding to 320 g/ha or less, which have been obtained by the trial procedure specified hereinafter. The inventive compound (I-01) differs here by variance of a significant structural feature from the structurally similar compound with regard to the R^2 radical. Seeds of monocotyledonous and dicotyledonous weed plants and crop plants are placed in plastic or organic planting pots and covered with soil. The compounds of the invention, formulated in the form of wettable powders (WP) or as emulsion concentrates (EC), are then applied to the surface of the covering soil as aqueous suspension or emulsion with addition of 0.5% additive at a water application rate equivalent to 600 l/ha. After the treatment, the pots are placed in a greenhouse and kept under good growth conditions for the trial plants. After about 3 weeks, the effect of the preparations is scored visually in comparison with untreated controls as percentages. For example, 100% activity=the plants have died, 0% activity=like control plants. Effects/crop compatibilities of selected compounds (Table 39) on various harmful plants at an application rate corresponding to 80 to 320 g/ha that have been obtained by the trial procedure specified hereinabove are shown in Tables 40a and 40b below.

[3] = system: LOLRI; experiment: Post-emergence herbicidal effect, greenhouse pot test; assay type: in vivo, Lolium rigidum; conditions: 320 g/ha
Procedure, shortened: (§1)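 Greenhouse pot plants in sandy loam receive a one-leaf-stage spray at 20 to 320 g/ha. Activity is assessed visually around 3 weeks afterwards on a 0–100% scale, where 100% means the plants have died.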

[4] = system: ECHCG; experiment: as above; assay type: in vivo, Echinochloa crus-galli
Procedure, shortened: as §1

[5] = system: AVEFA; experiment: as above; assay type: in vivo, Avena fatua; conditions: 320 g/ha, visual rating about 3 weeks after treatment
Procedure, shortened: as §1

[6] = system: PHBPU; experiment: as above; assay type: in vivo, Ipomoea purpurea
Procedure, shortened: as §1

[7] = system: TRZAS; experiment: Post-emergence herbicidal effect and crop plant compatibility, greenhouse pot test; assay type: in vivo, Triticum aestivum; conditions: 20 g/ha, one-leaf stage, rated visually after about 3 weeks vs untreated controls
Procedure, shortened: as §1

[8] = system: MATIN; experiment: Post-emergence herbicidal effect, greenhouse pot test; assay type: in vivo, Tripleurospermum inodorum
Procedure, shortened: as §1

[9] = system: DIGSA; experiment: as above; assay type: in vivo, Digitaria sanguinalis; conditions: 320 g/ha, visual rating about 3 weeks after treatment
Procedure, shortened: as §1

[10] = system: SETVI; experiment: as above; assay type: in vivo, Setaria viridis
Procedure, shortened: as §1

[11] = system: AMARE; experiment: as above; assay type: in vivo, Amaranthus retroflexus; conditions: 320 g/ha, visual rating about 3 weeks after treatment
Procedure, shortened: as §1

[12] = system: KCHSC; experiment: as above; assay type: in vivo
Procedure, shortened: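 Visual rating of activity against untreated plants (100% = plants died, 0% = no effect), done about 3 weeks after treatment. Compounds applied at 20–320 g/ha as aqueous spray (600 l/ha, 0.5% additive) from WP or EC formulations onto one-leaf-stage plants grown in sandy loam under greenhouse conditions.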

[13] = system: VERPE; experiment: as above; assay type: in vivo, Veronica persica
Procedure, shortened: as §1

[14] = system: ALOMY; experiment: as above; assay type: in vivo, Alopecurus myosuroides; conditions: 320 g/ha, visual rating about 3 weeks after treatment
Procedure, shortened: as §1

[15] = system: ABUTH; experiment: as above; assay type: in vivo, Abutilon theophrasti; conditions: visual rating about 3 weeks after treatment
Procedure, shortened: as §1

[16] = system: ZEAMX; experiment: Post-emergence herbicidal effect and crop plant compatibility, greenhouse pot test; assay type: in vivo, Zea mays; conditions: 20 g/ha, one-leaf stage, rated visually after about 3 weeks vs untreated controls
Procedure, shortened: as §1

[17] = system: POLCO; experiment: Post-emergence herbicidal effect, greenhouse pot test; assay type: in vivo, Fallopia convolvulus
Procedure, shortened: as §1

[18] = system: VIOTR; experiment: as above; assay type: in vivo, Viola tricolor
Procedure, shortened: as §1

## CCCC(Oc1nn(-c2ccccc2F)c(-c2ccc(F)nc2)c1Br)C(=O)OCC (stereo not shown) [A]
[1]; 80 g/ha
  Post-emergence effect, Effect %, ALOMY: 0%
  Post-emergence effect, Effect %, AVEFA: 30%
  Post-emergence effect, Effect %, ECHCG: 50%
  Post-emergence effect, Effect %, LOLRI: 0%
  Post-emergence effect, Effect %, SETVI: 20%
[1]; 320 g/ha
  Post-emergence effect, Effect %, ALOMY: 50%
  Post-emergence effect, Effect %, AVEFA: 40%
  Post-emergence effect, Effect %, ECHCG: 80%
  Post-emergence effect, Effect %, LOLRI: 20%
  Post-emergence effect, Effect %, SETVI: 70%
[2]; ALOMY, 320 g/ha
  Pre-emergence effect, Effect %, ALOMY: 60%
[2]; 80 g/ha
  Pre-emergence effect, Effect %, ECHCG: 0%
  Pre-emergence effect, Effect %, LOLRI: 20%
  Pre-emergence effect, Effect %, MATIN: 0%
[2]; 320 g/ha
  Pre-emergence effect, Effect %, ECHCG: 80%
  Pre-emergence effect, Effect %, LOLRI: 30%
  Pre-emergence effect, Effect %, MATIN: 30%
[2]; POLCO, 80 g/ha
  Pre-emergence effect, Effect %, POLCO: 20%
[2]; SETVI, 320 g/ha
  Pre-emergence effect, Effect %, SETVI: 70%

## CCOC(=O)COc1nn(-c2ccccc2F)c(-c2ccc(F)nc2)c1Br [B]
[1]; 80 g/ha
  Post-emergence effect, Effect %, ALOMY: 70%
  Post-emergence effect, Effect %, AVEFA: 80%
  Post-emergence effect, Effect %, ECHCG: 50%
  Post-emergence effect, Effect %, LOLRI: 30%
  Post-emergence effect, Effect %, SETVI: 70%

## CCOC(Oc1nn(-c2ccccc2F)c(-c2ccc(F)nc2)c1Cl)C(=O)OCCC(=O)OC (stereo not shown) [Example I-53]
[3]
  Post-emergence effect against LOLRI in %: 90%
[4]; 80 g/ha
  Post-emergence effect against ECHCG in %: 90%
[4]; 320 g/ha
  Post-emergence effect against ECHCG in %: 90%
[5]
  Post-emergence effect against AVEFA: 90%
[6]; 80 g/ha
  Post-emergence effect against PHBPU in %: 90%
[6]; 320 g/ha
  Post-emergence effect against PHBPU in %: 90%
[7]
  Post-emergence effect at 20 g/ha against TRZAS in %: 0%
[8]; 320 g/ha
  Post-emergence effect against MATIN in %: 80%
[9]
  Post-emergence effect against DIGSA: 90%
[10]; 320 g/ha
  Post-emergence effect against SETVI in %: 90%
[11]
  Post-emergence effect against AMARE: 80%
[12]; 320 g/ha
  Post-emergence effect against KCHSC in %: 80%
[13]; 80 g/ha
  Post-emergence effect against VERPE in %: 80%
[13]; 320 g/ha
  Post-emergence effect against VERPE in %: 90%
[14]
  Post-emergence effect against ALOMY: 100%
[15]; 320 g/ha
  Post-emergence effect against ABUTH: 80%
[16]
  Post-emergence effect at 20 g/ha against ZEAMX in %: 0%
[17]; 80 g/ha
  Post-emergence effect against POLCO in %: 80%
[17]; 320 g/ha
  Post-emergence effect against POLCO in %: 80%
[18]; 80 g/ha
  Post-emergence effect against VIOTR in %: 80%
[18]; 320 g/ha
  Post-emergence effect against VIOTR in %: 80%

## COC(=O)C(OC)Oc1nn(-c2ccccc2F)c(-c2ccc(F)nc2)c1C1CC1 (stereo not shown) [Example I-71]
[3]; Lolium rigidum, 504 h, read-out: Post-emergence effect against LOLRI in %
  pest or weed control at 320 g/ha: 90%
[4]; Echinochloa crus-galli, 504 h, 20 g/ha, visual rating about 3 weeks after treatment, read-out: Post-emergence effect against ECHCG
  pest or weed control at 20 g/ha: 90%
[4]; Echinochloa crus-galli, 504 h, 80 g/ha, read-out: Post-emergence effect against ECHCG in %
  pest or weed control at 80 g/ha: 90%
[4]; Echinochloa crus-galli, 504 h, 320 g/ha, read-out: Post-emergence effect against ECHCG in %
  pest or weed control at 320 g/ha: 90%
[5]; Avena fatua, 504 h, read-out: Post-emergence effect against AVEFA
  pest or weed control at 320 g/ha: 90%
[6]; Ipomoea purpurea, 504 h, 20 g/ha, read-out: Post-emergence effect against PHBPU in %
  pest or weed control at 20 g/ha: 80%
[6]; Ipomoea purpurea, 504 h, 80 g/ha, read-out: Post-emergence effect against PHBPU in %
  pest or weed control at 80 g/ha: 90%
[6]; Ipomoea purpurea, 504 h, 320 g/ha, read-out: Post-emergence effect against PHBPU in %
  pest or weed control at 320 g/ha: 90%
[7]; Triticum aestivum, 504 h, read-out: Post-emergence effect at 20 g/ha against TRZAS in %
  percent crop injury (phytotoxicity) to wheat, post-emergence at 20 g/ha: 20%
[8]; Tripleurospermum inodorum, 504 h, 80 g/ha, read-out: Post-emergence effect against MATIN in %
  pest or weed control at 80 g/ha: 80%
[8]; Tripleurospermum inodorum, 504 h, 320 g/ha, read-out: Post-emergence effect against MATIN in %
  pest or weed control at 320 g/ha: 80%
[9]; Digitaria sanguinalis, 504 h, read-out: Post-emergence effect against DIGSA
  pest or weed control at 320 g/ha: 90%
[10]; Setaria viridis, 504 h, 80 g/ha, read-out: Post-emergence effect against SETVI in %
  pest or weed control at 80 g/ha: 80%
[10]; Setaria viridis, 504 h, 320 g/ha, read-out: Post-emergence effect against SETVI in %
  pest or weed control at 320 g/ha: 90%
[11]; Amaranthus retroflexus, 504 h, read-out: Post-emergence effect against AMARE
  pest or weed control at 320 g/ha: 80%
[12]; 504 h, 80 g/ha, read-out: Post-emergence effect against KCHSC in %
  pest or weed control at 80 g/ha: 80%
[12]; 504 h, 320 g/ha, read-out: Post-emergence effect against KCHSC in %
  pest or weed control at 320 g/ha: 90%
[13]; Veronica persica, 504 h, 80 g/ha, read-out: Post-emergence effect against VERPE in %
  pest or weed control at 80 g/ha: 90%
[13]; Veronica persica, 504 h, 320 g/ha, read-out: Post-emergence effect against VERPE in %
  pest or weed control at 320 g/ha: 90%
[14]; Alopecurus myosuroides, 504 h, read-out: Post-emergence effect against ALOMY
  pest or weed control at 320 g/ha: 90%
[15]; Abutilon theophrasti, 504 h, 80 g/ha, read-out: Post-emergence effect against ABUTH
  pest or weed control at 80 g/ha: 90%
[15]; Abutilon theophrasti, 504 h, 320 g/ha, read-out: Post-emergence effect against ABUTH
  pest or weed control at 320 g/ha: 90%
[16]; Zea mays, 504 h, read-out: Post-emergence effect at 20 g/ha against ZEAMX in %
  plant injury at 20 g/ha: 10%
[17]; Fallopia convolvulus, 504 h, 80 g/ha, read-out: Post-emergence effect against POLCO in %
  pest or weed control at 80 g/ha: 80%
[17]; Fallopia convolvulus, 504 h, 320 g/ha, read-out: Post-emergence effect against POLCO in %
  pest or weed control at 320 g/ha: 80%
[18]; Viola tricolor, 504 h, 20 g/ha, read-out: Post-emergence effect against VIOTR in %
  pest or weed control at 20 g/ha: 90%
[18]; Viola tricolor, 504 h, 80 g/ha, read-out: Post-emergence effect against VIOTR in %
  pest or weed control at 80 g/ha: 90%
[18]; Viola tricolor, 504 h, 320 g/ha, read-out: Post-emergence effect against VIOTR in %
  pest or weed control at 320 g/ha: 90%
